Measured values published in ChEMBL document CHEMBL1909046, “DrugMatrix in vitro pharmacology data”.

System: not listed separately
Experiment: DRUGMATRIX: Potassium Channel [KATP] radioligand binding (ligand: [3H] Glyburide)
Type: cell membranes, Membrane
Details: hit-t15; Not Active = under 50% inhibition at 10 µM

With `CNC1=Nc2ccc(Cl)cc2C(c2ccccc2)=[N+]([O-])C1` [CHLORDIAZEPOXIDE] as the compound, how does the IC50 read?
The IC50 was “Not Active”.

What about the Ki of the same compound?
The Ki was “Not Active”.

What does the source list for `Cc1cc(O)cc(C)c1Cl` [CHLOROXYLENOL]?
IC50: Not Active; Ki: Not Active

With `CCCNC(=O)NS(=O)(=O)c1ccc(Cl)cc1` [CHLORPROPAMIDE] as the compound, how does the IC50 read?
Its IC50 is “Not Active”.

And the Ki?
The Ki was “Not Active”.

For `NS(=O)(=O)c1cc(C2(O)NC(=O)c3ccccc32)ccc1Cl` (centres undefined) [CHLORTHALIDONE], which IC50 is on record?
The IC50 was “Not Active”.

What about the Ki of the same compound?
Its Ki is “Not Active”.

What does the source list for `O=C(O)CC(O)(CC(=O)O)C(=O)O` [CITRIC ACID]?
IC50: Not Active; Ki: Not Active

Which IC50 does the source give for `CC(C)NCC(O)c1ccccc1Cl` (centres undefined) [CLORPRENALINE] here?
Its IC50 is “Not Active”.

What about the Ki of the same compound?
Its Ki is “Not Active”.

System: not listed separately
Experiment: DRUGMATRIX: Imidazoline I2, Central radioligand binding (ligand: [3H] Idazoxan)
Type: cell membranes, Rattus norvegicus, Wistar, Cerebral cortex, Membrane
Details: Not Active = under 50% inhibition at 10 µM

For `CNC1=Nc2ccc(Cl)cc2C(c2ccccc2)=[N+]([O-])C1` [CHLORDIAZEPOXIDE], which IC50 is on record?
Its IC50 is “Not Active”.

And the Ki?
Its Ki is “Not Active”.

For `Cc1cc(O)cc(C)c1Cl` [CHLOROXYLENOL], which IC50 is on record?
The IC50 was “Not Active”.

What about the Ki of the same compound?
Its Ki is “Not Active”.

For `CCCNC(=O)NS(=O)(=O)c1ccc(Cl)cc1` [CHLORPROPAMIDE], which IC50 is on record?
The IC50 was “Not Active”.

What about the Ki of the same compound?
The Ki was “Not Active”.

Which IC50 does the source give for `NS(=O)(=O)c1cc(C2(O)NC(=O)c3ccccc32)ccc1Cl` (centres undefined) [CHLORTHALIDONE] here?
The IC50 was “Not Active”.

What about the Ki of the same compound?
Its Ki is “Not Active”.

Which IC50 does the source give for `O=C(O)CC(O)(CC(=O)O)C(=O)O` [CITRIC ACID] here?
Its IC50 is “Not Active”.

What about the Ki of the same compound?
The Ki was “Not Active”.

What does the source list for `CC(C)NCC(O)c1ccccc1Cl` (centres undefined) [CLORPRENALINE]?
IC50: Not Active; Ki: Not Active

Target: T1, Calcitonin receptor (Homo sapiens, UniProt P30988); also: in other assays of this panel Not Active means under 50% inhibition at 10 µM
T1 sequence (P30988 whole entry): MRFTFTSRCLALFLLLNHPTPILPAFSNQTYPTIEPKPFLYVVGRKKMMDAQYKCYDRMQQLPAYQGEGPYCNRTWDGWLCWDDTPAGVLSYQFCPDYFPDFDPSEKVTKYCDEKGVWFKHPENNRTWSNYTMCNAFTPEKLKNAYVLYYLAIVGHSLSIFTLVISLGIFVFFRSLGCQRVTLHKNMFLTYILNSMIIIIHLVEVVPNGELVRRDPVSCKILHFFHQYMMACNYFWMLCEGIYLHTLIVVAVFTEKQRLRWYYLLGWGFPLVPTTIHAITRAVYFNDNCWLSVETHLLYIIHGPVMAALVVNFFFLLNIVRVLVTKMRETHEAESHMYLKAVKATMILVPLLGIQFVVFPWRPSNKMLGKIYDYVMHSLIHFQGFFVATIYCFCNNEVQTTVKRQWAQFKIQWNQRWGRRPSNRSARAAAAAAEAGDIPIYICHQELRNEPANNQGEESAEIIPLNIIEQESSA
Experiment: not given
Type: cell membranes, Membrane
Details: t47d

Which IC50 does the source give for `CNC1=Nc2ccc(Cl)cc2C(c2ccccc2)=[N+]([O-])C1` [CHLORDIAZEPOXIDE] here?
Its IC50 is “Not Active”.

With `Cc1cc(O)cc(C)c1Cl` [CHLOROXYLENOL] as the compound, how does the IC50 read?
Its IC50 is “Not Active”.

With `CCCNC(=O)NS(=O)(=O)c1ccc(Cl)cc1` [CHLORPROPAMIDE] as the compound, how does the IC50 read?
Its IC50 is “Not Active”.

For `NS(=O)(=O)c1cc(C2(O)NC(=O)c3ccccc32)ccc1Cl` (centres undefined) [CHLORTHALIDONE], which IC50 is on record?
Its IC50 is “Not Active”.

For `O=C(O)CC(O)(CC(=O)O)C(=O)O` [CITRIC ACID], which IC50 is on record?
The IC50 was “Not Active”.

With `CC(C)NCC(O)c1ccccc1Cl` (centres undefined) [CLORPRENALINE] as the compound, how does the IC50 read?
Its IC50 is “Not Active”.

Target: Sodium-dependent noradrenaline transporter (Homo sapiens, UniProt P23975)
Experiment: DRUGMATRIX: Norepinephrine Transporter radioligand binding (ligand: [125I] RTI-55)
Type: cell membranes, MDCK, Membrane
Details: mdck; Not Active = under 50% inhibition at 10 µM

Sequence of Sodium-dependent noradrenaline transporter (P23975 whole entry): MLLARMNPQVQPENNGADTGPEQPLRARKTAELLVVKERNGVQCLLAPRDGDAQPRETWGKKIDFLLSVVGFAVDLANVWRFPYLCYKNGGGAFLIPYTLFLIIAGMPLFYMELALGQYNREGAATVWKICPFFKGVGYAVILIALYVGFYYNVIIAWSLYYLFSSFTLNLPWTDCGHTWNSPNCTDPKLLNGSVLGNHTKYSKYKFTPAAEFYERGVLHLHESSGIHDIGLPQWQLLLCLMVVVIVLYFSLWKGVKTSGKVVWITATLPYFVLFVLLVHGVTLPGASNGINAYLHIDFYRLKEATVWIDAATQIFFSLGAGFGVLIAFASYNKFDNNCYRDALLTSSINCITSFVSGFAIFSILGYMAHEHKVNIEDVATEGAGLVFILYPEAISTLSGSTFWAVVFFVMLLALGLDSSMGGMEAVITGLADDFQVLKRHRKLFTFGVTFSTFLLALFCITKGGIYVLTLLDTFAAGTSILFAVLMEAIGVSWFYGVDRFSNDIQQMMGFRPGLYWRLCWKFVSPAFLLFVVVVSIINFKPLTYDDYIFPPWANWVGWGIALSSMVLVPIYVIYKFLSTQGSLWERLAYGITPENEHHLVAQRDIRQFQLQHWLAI

Which IC50 does the source give for `CNC1=Nc2ccc(Cl)cc2C(c2ccccc2)=[N+]([O-])C1` [CHLORDIAZEPOXIDE] here?
The IC50 was “Not Active”.

For `Cc1cc(O)cc(C)c1Cl` [CHLOROXYLENOL], which IC50 is on record?
The IC50 was “Not Active”.

For `CCCNC(=O)NS(=O)(=O)c1ccc(Cl)cc1` [CHLORPROPAMIDE], which IC50 is on record?
Its IC50 is “Not Active”.

Which IC50 does the source give for `NS(=O)(=O)c1cc(C2(O)NC(=O)c3ccccc32)ccc1Cl` (centres undefined) [CHLORTHALIDONE] here?
The IC50 was “Not Active”.

For `O=C(O)CC(O)(CC(=O)O)C(=O)O` [CITRIC ACID], which IC50 is on record?
Its IC50 is “Not Active”.

Which IC50 does the source give for `CC(C)NCC(O)c1ccccc1Cl` (centres undefined) [CLORPRENALINE] here?
Its IC50 is “Not Active”.

System: not listed separately
Experiment: DRUGMATRIX: Platelet-Derived Growth Factor (PDGF) radioligand binding (ligand: [125I] PDGF)
Type: cell-based
Details: nih3t3; Not Active = under 50% inhibition at 10 µM

Which IC50 does the source give for `CNC1=Nc2ccc(Cl)cc2C(c2ccccc2)=[N+]([O-])C1` [CHLORDIAZEPOXIDE] here?
Its IC50 is “Not Active”.

What about the Ki of the same compound?
The Ki was “Not Active”.

With `Cc1cc(O)cc(C)c1Cl` [CHLOROXYLENOL] as the compound, how does the IC50 read?
The IC50 was “Not Active”.

What about the Ki of the same compound?
Its Ki is “Not Active”.

With `CCCNC(=O)NS(=O)(=O)c1ccc(Cl)cc1` [CHLORPROPAMIDE] as the compound, how does the IC50 read?
Its IC50 is “Not Active”.

What about the Ki of the same compound?
The Ki was “Not Active”.

Which IC50 does the source give for `NS(=O)(=O)c1cc(C2(O)NC(=O)c3ccccc32)ccc1Cl` (centres undefined) [CHLORTHALIDONE] here?
Its IC50 is “Not Active”.

And the Ki?
Its Ki is “Not Active”.

Which IC50 does the source give for `O=C(O)CC(O)(CC(=O)O)C(=O)O` [CITRIC ACID] here?
The IC50 was “Not Active”.

What about the Ki of the same compound?
Its Ki is “Not Active”.

What does the source list for `CC(C)NCC(O)c1ccccc1Cl` (centres undefined) [CLORPRENALINE]?
IC50: Not Active; Ki: Not Active

Target: T2, Interstitial collagenase (Homo sapiens, UniProt P03956);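 also: MMP-1 enzyme inhibition assay using a peptide substrate; in other assays of this panel Not Active means under 50% inhibition at 10 µM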
T2 sequence (P03956 whole entry): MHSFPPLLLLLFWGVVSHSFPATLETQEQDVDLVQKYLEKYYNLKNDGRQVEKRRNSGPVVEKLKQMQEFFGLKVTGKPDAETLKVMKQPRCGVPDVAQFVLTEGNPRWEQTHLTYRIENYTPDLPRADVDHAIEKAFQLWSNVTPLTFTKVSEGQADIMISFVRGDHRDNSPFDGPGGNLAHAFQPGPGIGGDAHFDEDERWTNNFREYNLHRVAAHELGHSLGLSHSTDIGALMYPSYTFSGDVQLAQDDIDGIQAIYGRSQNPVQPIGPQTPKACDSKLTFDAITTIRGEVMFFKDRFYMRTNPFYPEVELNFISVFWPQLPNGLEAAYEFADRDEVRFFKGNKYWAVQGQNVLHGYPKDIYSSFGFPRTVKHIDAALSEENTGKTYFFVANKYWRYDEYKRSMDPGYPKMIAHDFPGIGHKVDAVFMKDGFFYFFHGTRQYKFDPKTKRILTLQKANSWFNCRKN
Experiment: biochemical
Type: tissue-based, Rheumatoid synovial fibroblasts
Details: not given

Which IC50 does the source give for `CNC1=Nc2ccc(Cl)cc2C(c2ccccc2)=[N+]([O-])C1` [CHLORDIAZEPOXIDE] here?
Its IC50 is “Not Active”.

For `Cc1cc(O)cc(C)c1Cl` [CHLOROXYLENOL], which IC50 is on record?
Its IC50 is “Not Active”.

With `CCCNC(=O)NS(=O)(=O)c1ccc(Cl)cc1` [CHLORPROPAMIDE] as the compound, how does the IC50 read?
The IC50 was “Not Active”.

With `NS(=O)(=O)c1cc(C2(O)NC(=O)c3ccccc32)ccc1Cl` (centres undefined) [CHLORTHALIDONE] as the compound, how does the IC50 read?
The IC50 was “Not Active”.

With `O=C(O)CC(O)(CC(=O)O)C(=O)O` [CITRIC ACID] as the compound, how does the IC50 read?
The IC50 was “Not Active”.

For `CC(C)NCC(O)c1ccccc1Cl` (centres undefined) [CLORPRENALINE], which IC50 is on record?
Its IC50 is “Not Active”.
